Reference: patent US11161856B2 (H. Lundbeck A/S, priority 2017, dated 2021)

What was measured:
MGLL = biological target: T1, MGLL (Mus musculus, UniProt O35678); assay: In vitro competitive activity-based protein profiling, mouse brain proteome (MGLL); assay type: biochemical; design: IC50 MGLL Brain (Mouse, μM): scale not given here; details: for % Inh MGLL Brain (Mouse, μM): concentration not given (μM)
T1 construct: Brain; from tissue; host or cells: mouse brain proteome
T1 sequence (O35678 1-303): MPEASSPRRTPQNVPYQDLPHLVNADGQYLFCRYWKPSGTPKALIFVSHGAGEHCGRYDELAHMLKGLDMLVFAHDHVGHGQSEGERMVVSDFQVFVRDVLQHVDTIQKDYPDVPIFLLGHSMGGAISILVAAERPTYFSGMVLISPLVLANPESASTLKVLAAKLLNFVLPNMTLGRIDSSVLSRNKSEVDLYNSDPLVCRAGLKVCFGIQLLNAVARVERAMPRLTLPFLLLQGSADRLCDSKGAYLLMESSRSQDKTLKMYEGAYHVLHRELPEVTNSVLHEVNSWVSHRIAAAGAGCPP

ABHD6 = biological target: T2, ABHD6 (Mus musculus, UniProt Q8R2Y0); assay: In vitro competitive activity-based protein profiling, mouse brain proteome (ABHD6); assay type: biochemical; details: mouse brain proteome; concentration not given (μM)
T2 construct: Brain; from tissue; host or cells: mouse brain proteome
T2 sequence (Q8R2Y0 1-336): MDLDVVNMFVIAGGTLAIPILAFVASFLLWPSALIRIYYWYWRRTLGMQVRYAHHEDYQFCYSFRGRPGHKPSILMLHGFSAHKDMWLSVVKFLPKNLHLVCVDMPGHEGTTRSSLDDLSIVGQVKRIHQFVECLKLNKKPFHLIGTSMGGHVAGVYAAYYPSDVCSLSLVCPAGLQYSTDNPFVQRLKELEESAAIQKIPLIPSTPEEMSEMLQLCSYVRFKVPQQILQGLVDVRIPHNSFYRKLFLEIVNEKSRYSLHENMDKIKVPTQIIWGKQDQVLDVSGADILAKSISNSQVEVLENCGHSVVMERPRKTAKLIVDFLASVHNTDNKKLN
Description: [The source words this procedure for another target and reports this target under the same test.] In Vitro Competitive Activity-Based Protein Profiling.
Proteomes (human prefrontal cortex or cell membrane fractions) (50 μL, 1.0 mg/mL total protein concentration) were preincubated with varying concentrations of inhibitors at 37° C. After 30 min, FP-Rh or HT-01 (1.0 μL, 50 μM in DMSO) was added and the mixture was incubated for another 30 min at room temperature. Reactions were quenched with SDS loading buffer (15 μL-4×) and run on SDS-PAGE.

SMILES | % Inh MGLL Brain (Mouse, μM) (MGLL) | % Inh ABHD6 Brain (Mouse, μM) (ABHD6) | IC50 MGLL Brain (Mouse, μM) (MGLL)
O=C(OC(C(F)(F)F)C(F)(F)F)N1CCC2(CC1)CN(Cc1c(Cl)cccc1N1CCOCC1)C2 [Example 46, 1,1,1,3,3,3-Hexafluoropropan-2-yl 2-(2-chloro-6-morpholinobenzyl)-2,7-diazaspiro[3.5]nonane-7-carboxylate] | ### (### is ≥75%) | ### (### is ≥75%) | –
COc1ccccc1CN1CC2(CCN(C(=O)OC(C(F)(F)F)C(F)(F)F)CC2)C1 [Example 92, 1,1,1,3,3,3-Hexafluoropropan-2-yl 2-(2-methoxybenzyl)-2,7-diazaspiro[3.5]nonane-7-carboxylate] | ### (### is ≥75%) | ### (### is ≥75%) | –
Cc1cccc(CN2CC3(CCN(C(=O)OC(C(F)(F)F)C(F)(F)F)CC3)C2)c1 [Example 86, 1,1,1,3,3,3-Hexafluoropropan-2-yl 2-(3-methylbenzyl)-2,7-diazaspiro[3.5]nonane-7-carboxylate] | ### (### is ≥75%) | ### (### is ≥75%) | –
COc1ccc(CN2CC3(CCN(C(=O)OC(C(F)(F)F)C(F)(F)F)CC3)C2)cc1 [Example 85, 1,1,1,3,3,3-Hexafluoropropan-2-yl 2-(4-methoxybenzyl)-2,7-diazaspiro[3.5]nonane-7-carboxylate] | ### (### is ≥75%) | ### (### is ≥75%) | –
O=C(OC(C(F)(F)F)C(F)(F)F)N1CCC2(CC1)CN(Cc1c(Cl)cccc1N1CCC(F)CC1)C2 [Example 47, 1,1,1,3,3,3-Hexafluoropropan-2-yl 2-(2-chloro-6-(4-fluoropiperidin-1-yl)benzyl)-2,7-diazaspiro[3.5]nonane-7-carboxylate] | ### (### is ≥75%) | ### (### is ≥75%) | –
CC(=O)N1CCC2(CC1)CCN(c1cc(Cl)cc(CN3CCCC34CN(C(=O)OC(C(F)(F)F)C(F)(F)F)C4)c1)C2 [Example 236, 1,1,1,3,3,3-Hexafluoroprupan-2-yl 5-(3-(8-acetyl-2,8-diazaspiro[4.5]decan-2-yl)-5-chlorobenzyl)-2,5-diazaspiro[3.4]octane-2-carboxylate] | ### (### is ≥75%) | ### (### is ≥75%) | –
O=C(OC(C(F)(F)F)C(F)(F)F)N1CCC2(CC1)CN(Cc1ccc(F)cc1)C2 [Example 93, 1,1,1,3,3,3-Hexafluoropropan-2-yl 2-(4-fluorobenzyl)-2,7-diazaspiro[3,5]nonane-7-carboxylate] | ### (### is ≥75%) | ### (### is ≥75%) | –
O=C(OC(C(F)(F)F)C(F)(F)F)N1CCC2(CC1)CN(Cc1cccc(N3CCOCC3)c1)C2 [Example 90, 1,1,1,3,3,3-Hexafluoropropan-2-yl 2-(3-morpholinobenzyl)-2,7-diazaspiro[3,5]nonane-7-carboxylate] | ### (### is ≥75%) | ### (### is ≥75%) | –
CCN1CCC2(CCN(c3cc(Cl)cc(CN4CCCC45CN(C(=O)OC(C(F)(F)F)C(F)(F)F)C5)c3)CC2)C1 [Example 235, 1,1,1,3,3,3-Hexafluoropropan-2-yl 5-(3-chloro-5-(2-ethyl-2,8-diazaspiro[4.5]decan-8-yl)benzyl)-2,5-diazaspiro[3.4]octane-2-carboxylate] | – | ### (### is ≥75%) | –

The next lines start with the values.

% Inh MGLL Brain (Mouse, μM) (MGLL) | % Inh ABHD6 Brain (Mouse, μM) (ABHD6) | IC50 MGLL Brain (Mouse, μM) (MGLL) | SMILES
### (### is ≥75%) | ### (### is ≥75%) | – | CC(=O)N1CCN(c2cccc(C(F)(F)F)c2CN2CC3(CCN(C(=O)OC(C(F)(F)F)C(F)(F)F)CC3)C2)CC1 [Example 59, 1,1,1,3,3,3-Hexafluoropropan-2-yl 2-(2-(4-acetylpiperazin-1-yl)-6-(trifluoromethyl)benzyl)-2,7-diazaspiro[3.5]nonane-7-carboxylate]
### (### is ≥75%) | # (# is ≤25%) | – | O=C(OC(C(F)(F)F)C(F)(F)F)N1CCC2(CCN(Cc3ccc(C(F)(F)F)cc3N3CC4COCC4C3)CC2)C1 (centres unmarked) [Example 188, 1,1,1,3,3,3-Hexafluoropropan-2-yl 8-(2-(tetrahydro-1H-furo[3,4-c]pyrrol-5(3H)-yl)-4-(trifluoromethyl)benzyl)-2,8-diazaspiro[4.5]decane-2-carboxylate]
### (### is ≥75%) | ### (### is ≥75%) | – | O=C(OC(C(F)(F)F)C(F)(F)F)N1CCC2(CC1)CN(Cc1ccccc1C(F)(F)F)C2 [Example 95, 1,1,1,3,3,3-Hexafluoropropan-2-yl 2-(2-(trifluoromethyl)benzyl)-2,7-diazaspiro[3.5]nonane-7-carboxylate]
### (### is ≥75%) | ### (### is ≥75%) | – | CS(=O)(=O)N1CC2(CCN(c3cc(C(F)(F)F)ccc3CN3CCN(C(=O)OC(C(F)(F)F)C(F)(F)F)CC3)CC2)C1 [Example 211, 1,1,1,3,3,3-Hexafluoropropan-2-yl 4-(2-(2-(methylsulfonyl)-2,7-diazaspiro[3.5]nonan-7-yl)-4-(trifluoiomethyl)benzyl) piperazine-1-carboxylate]
### (### is ≥75%) | ## (## is between 25 and 75%) | – | O=C(OC(C(F)(F)F)C(F)(F)F)N1CCC2(CC1)CN(Cc1ccc(C(F)(F)F)cc1N1CCCCC1)C2 [Example 35]
### (### is ≥75%) | ### (### is ≥75%) | – | O=C(OC(C(F)(F)F)C(F)(F)F)N1CC2(CCN(Cc3ccc(N4CCCC4)cc3)CC2)C1 [Example 17, 1,1,1,3,3,3-hexafluoropropan-2-yl 7-(4-(pyrrolidin-1-yl)benzyl)-2,7-diazaspiro[3.5]nonane-2-carboxylate]
### (### is ≥75%) | ### (### is ≥75%) | – | O=C(OC(C(F)(F)F)C(F)(F)F)N1CCC2(CC1)CN(Cc1c(N3CCC4(CCOCC4)C3)cccc1C(F)(F)F)C2 [Example 52, 1,1,1,3,3,3-Hexafluoropropan-2-yl 2-(2-(8-oxa-2-azaspiro[4.5]decan-2-yl)-6-(trifluoromethyl)benzyl)-2,7-diazaspiro[3.5]nonane-7-carboxylate]
### (### is ≥75%) | # (# is ≤25%) | – | CCN1CC2(CCN(c3cc(C(F)(F)F)ccc3CN3CCN(C(=O)OC(C(F)(F)F)C(F)(F)F)CC3)C2)C1 [Example 184, 1,1,1,3,3,3-Hexafluoropropan-2-yl 4-(2-(2-ethyl-2,6-diazaspiro[3,4]octan-6-yl)-4-(trifluoromethyl)benzyl) piperazine-1-carboxylate]
### (### is ≥75%) | ### (### is ≥75%) | – | CS(=O)(=O)N1CCc2cccc(CN3CCC4(CC3)CCN(C(=O)OC(C(F)(F)F)C(F)(F)F)C4)c2C1 [Example 217, 1,1,1,3,3,3-Hexafluoropropan-2-yl 8-((2-(methylsulfonyl)-1,2,3,4-tetrahydroisoquinolin-8-yl)methyl)-2,8-diazaspiro[4.5]decane-2-carboxylate]
### (### is ≥75%) | # (# is ≤25%) | – | CC(=O)N1CCC2(CCN(c3cc(Cl)ccc3CN3CCN(C(=O)OC(C(F)(F)F)C(F)(F)F)CC3)CC2)C1 [Example 178, 1,1,1,3,3,3-Hexafluoropropan-2-yl 4-(2-(2-acetyl-2,8-diazaspiro[4.5]decan-8-yl)-4-chlorobenzyl)piperazine-1-carboxylate]
### (### is ≥75%) | # (# is ≤25%) | * * * | CS(=O)(=O)N1CCC2(CCN(c3cc(Cl)ccc3CN3CCN(C(=O)OC(C(F)(F)F)C(F)(F)F)CC3)C2)CC1 [Example 30, 1,1,1,3,3,3-Hexafluoropropan-2-yl 4-(4-chloro-2-(8-(methylsulfonyl)-2,8-diazaspiro[4.5]decan-2-yl)benzyl)piperazine-1-carboxylate]
### (### is ≥75%) | # (# is ≤25%) | – | O=C(OC(C(F)(F)F)C(F)(F)F)N1CCC2(CCN(Cc3ccc(Cl)cc3N3CCOCC3)CC2)C1 [Example 181, 1,1,1,3,3,3-Hexafluoropropan-2-yl 8-(4-chloro-2-morpholinobenzyl)-2,8-diazaspiro[4.5]decane-2-carboxylate]
### (### is ≥75%) | # (# is ≤25%) | – | O=C(OC(C(F)(F)F)C(F)(F)F)N1CCC2(CCN(Cc3ccc(Cl)cc3N3CCCCC3)CC2)C1 [Example 191, 1,1,1,3,3,3-Hexafluoropropan-2-yl 8-(4-chloro-2-(piperidin-1-yl)benzyl)-2,8-diazaspiro[4.5]decane-2-carboxylate]
